Test results: the supplement of paper PMC10307832

How the values were obtained:
Assay in all cases: relative viability (nuclei count vs DMSO), 5 days (fraction); higher = more cells survive
[1] = compound: COC1=CC=C(C=C1)CN2C=CC3=C2C=C(C=C3)C(=O)NO + CS(=O)(=O)N1CCN(Cc2cc3nc(-c4cccc5[nH]ncc45)nc(N4CCOCC4)c3s2)CC1 [Pictilisib] (partner 1 µM)
Procedure, shortened: (§1)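 The day after seeding in 1536-well plates, lung cancer cell lines were treated by pin tool with a single drug, or with a fixed anchor-drug dose together with five library-drug doses (not always all listed) in √10 steps. After 5 days, a combined fix-and-stain solution (final 0.05% Triton X-100, 1% formaldehyde, 1 ug/ml Hoechst) was added. Nuclei counted on 4× images gave relative viability as treated counts over vehicle counts, reported as the median of duplicate plates.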

[2] = compound: COC1=CC=C(C=C1)CN2C=CC3=C2C=C(C=C3)C(=O)NO + CC(C)C[C@H](NC(=O)[C@H](Cc1ccccc1)NC(=O)c1cnccn1)B(O)O [Bortezomib] (partner 0.002 µM)
Procedure, shortened: as §1

Veliparib + Dasatinib = compound: C[C@]1(c2nc3c(C(N)=O)cccc3[nH]2)CCCN1 [Veliparib] + Cc1nc(Nc2ncc(C(=O)Nc3c(C)cccc3Cl)s2)cc(N2CCN(CCO)CC2)n1 [Dasatinib] (partner 0.075 µM)
Procedure, shortened: as §1

[3] = compound: COC1=CC=C(C=C1)CN2C=CC3=C2C=C(C=C3)C(=O)NO + O=C(c1cc(Cc2n[nH]c(=O)c3ccccc23)ccc1F)N1CCN(C(=O)C2CC2)CC1 [Olaparib] (partner 8 µM)
Procedure, shortened: as §1

HCC-78 gave a relative viability ([1]; first compound 0.253 µM) of 0.192, a relative viability ([1]; first compound 0.8 µM) of 0.199 and a relative viability ([1]; first compound 2.53 µM) of 0.213. It also gave a relative viability ([1]; first compound 8 µM) of 0.216, a relative viability ([2]; first compound 0.08 µM) of 0.474 and a relative viability ([2]; first compound 0.253 µM) of 0.49. For the same cell line, the relative viability ([2]; first compound 0.8 µM) was 0.437, the relative viability ([2]; first compound 2.53 µM) was 0.543 and the relative viability ([2]; first compound 8 µM) was 0.51. It also gave a relative viability (Veliparib + Dasatinib; first compound 0.02 µM) of 0.438, a relative viability (Veliparib + Dasatinib; first compound 0.06325 µM) of 0.337 and a relative viability (Veliparib + Dasatinib; first compound 0.2 µM) of 0.444. For the same cell line, the relative viability (Veliparib + Dasatinib; first compound 0.6325 µM) was 0.483, the relative viability (Veliparib + Dasatinib; first compound 2 µM) was 0.257 and the relative viability ([3]; first compound 0.08 µM) was 0.748. For the same cell line, the relative viability ([3]; first compound 0.253 µM) was 0.776, the relative viability ([3]; first compound 0.8 µM) was 0.815 and the relative viability ([3]; first compound 2.53 µM) was 0.968. It also gave a relative viability ([3]; first compound 8 µM) of 0.535.
In the case of HCC-366, the relative viability ([1]; first compound 0.08 µM) is reported as 0.139, the relative viability ([1]; first compound 0.253 µM) is reported as 0.165 and the relative viability ([1]; first compound 0.8 µM) is reported as 0.137. The relative viability ([1]; first compound 2.53 µM) was 0.136, the relative viability ([1]; first compound 8 µM) was 0.15 and the relative viability ([2]; first compound 0.253 µM) was 1.12. The relative viability ([2]; first compound 0.8 µM) was 1.03, the relative viability ([2]; first compound 2.53 µM) was 1.02 and the relative viability ([2]; first compound 8 µM) was 0.934. It also gave a relative viability (Veliparib + Dasatinib; first compound 0.02 µM) of 0.524, a relative viability (Veliparib + Dasatinib; first compound 0.06325 µM) of 0.514 and a relative viability (Veliparib + Dasatinib; first compound 0.2 µM) of 0.582. It also gave a relative viability (Veliparib + Dasatinib; first compound 0.6325 µM) of 0.572, a relative viability (Veliparib + Dasatinib; first compound 2 µM) of 0.588 and a relative viability ([3]; first compound 0.08 µM) of 0.237. The relative viability ([3]; first compound 0.253 µM) was 0.338, the relative viability ([3]; first compound 0.8 µM) was 0.371 and the relative viability ([3]; first compound 2.53 µM) was 0.375. The relative viability ([3]; first compound 8 µM) was 0.292.
In the case of HCC-827, the relative viability ([1]; first compound 0.08 µM) is reported as 0.934, the relative viability ([1]; first compound 0.253 µM) is reported as 0.921 and the relative viability ([1]; first compound 0.8 µM) is reported as 1.07. The relative viability ([1]; first compound 2.53 µM) was 1.15, the relative viability ([1]; first compound 8 µM) was 0.927 and the relative viability ([2]; first compound 0.08 µM) was 1.01. It also gave a relative viability ([2]; first compound 0.253 µM) of 0.929, a relative viability ([2]; first compound 0.8 µM) of 1.05 and a relative viability ([2]; first compound 2.53 µM) of 0.896. The relative viability ([2]; first compound 8 µM) was 1.04, the relative viability (Veliparib + Dasatinib; first compound 0.02 µM) was 0.362 and the relative viability (Veliparib + Dasatinib; first compound 0.06325 µM) was 0.302. For the same cell line, the relative viability (Veliparib + Dasatinib; first compound 0.2 µM) was 0.266, the relative viability (Veliparib + Dasatinib; first compound 0.6325 µM) was 0.205 and the relative viability (Veliparib + Dasatinib; first compound 2 µM) was 0.364. For the same cell line, the relative viability ([3]; first compound 0.08 µM) was 0.573, the relative viability ([3]; first compound 0.253 µM) was 0.697 and the relative viability ([3]; first compound 0.8 µM) was 0.655. It also gave a relative viability ([3]; first compound 2.53 µM) of 0.68 and a relative viability ([3]; first compound 8 µM) of 0.531.
HOP-62 was tested, and the relative viability ([1]; first compound 0.08 µM) was 0.249, the relative viability ([1]; first compound 0.253 µM) was 0.885 and the relative viability ([1]; first compound 0.8 µM) was 0.988. The relative viability ([1]; first compound 2.53 µM) was 0.908, the relative viability ([1]; first compound 8 µM) was 0.396 and the relative viability ([2]; first compound 0.08 µM) was 0.893. The relative viability ([2]; first compound 0.253 µM) was 0.841, the relative viability ([2]; first compound 0.8 µM) was 0.912 and the relative viability ([2]; first compound 2.53 µM) was 0.853. The relative viability ([2]; first compound 8 µM) was 0.946, the relative viability (Veliparib + Dasatinib; first compound 0.02 µM) was 0.634 and the relative viability (Veliparib + Dasatinib; first compound 0.06325 µM) was 0.549. The relative viability (Veliparib + Dasatinib; first compound 0.2 µM) was 0.705, the relative viability (Veliparib + Dasatinib; first compound 0.6325 µM) was 0.648 and the relative viability (Veliparib + Dasatinib; first compound 2 µM) was 0.651. It also gave a relative viability ([3]; first compound 0.253 µM) of 0.47, a relative viability ([3]; first compound 0.8 µM) of 0.489 and a relative viability ([3]; first compound 2.53 µM) of 0.396. It also gave a relative viability ([3]; first compound 8 µM) of 0.384.
IA-LM gave a relative viability ([1]; first compound 0.08 µM) of 0.296, a relative viability ([1]; first compound 0.253 µM) of 0.388 and a relative viability ([1]; first compound 0.8 µM) of 0.373. For the same cell line, the relative viability ([1]; first compound 2.53 µM) was 0.371, the relative viability ([1]; first compound 8 µM) was 0.23 and the relative viability ([2]; first compound 0.08 µM) was 0.857. For the same cell line, the relative viability ([2]; first compound 0.253 µM) was 0.69, the relative viability ([2]; first compound 0.8 µM) was 0.942 and the relative viability ([2]; first compound 2.53 µM) was 0.769. For the same cell line, the relative viability ([2]; first compound 8 µM) was 0.726, the relative viability ([3]; first compound 0.08 µM) was 0.755 and the relative viability ([3]; first compound 0.253 µM) was 0.846. It also gave a relative viability ([3]; first compound 0.8 µM) of 0.954, a relative viability ([3]; first compound 2.53 µM) of 0.902 and a relative viability ([3]; first compound 8 µM) of 0.833.
LC-2-ad gave a relative viability ([1]; first compound 0.08 µM) of 0.437, a relative viability ([1]; first compound 0.253 µM) of 0.597 and a relative viability ([1]; first compound 0.8 µM) of 0.547. The relative viability ([1]; first compound 2.53 µM) was 0.439, the relative viability ([1]; first compound 8 µM) was 0.427 and the relative viability ([2]; first compound 0.08 µM) was 0.964. The relative viability ([2]; first compound 0.253 µM) was 0.989, the relative viability ([2]; first compound 0.8 µM) was 1 and the relative viability ([2]; first compound 2.53 µM) was 0.959. It also gave a relative viability ([2]; first compound 8 µM) of 0.769, a relative viability (Veliparib + Dasatinib; first compound 0.06325 µM) of 0.423 and a relative viability (Veliparib + Dasatinib; first compound 0.2 µM) of 0.669. It also gave a relative viability (Veliparib + Dasatinib; first compound 0.6325 µM) of 0.556, a relative viability (Veliparib + Dasatinib; first compound 2 µM) of 0.388 and a relative viability ([3]; first compound 0.08 µM) of 0.696. The relative viability ([3]; first compound 0.253 µM) was 0.343, the relative viability ([3]; first compound 0.8 µM) was 0.681 and the relative viability ([3]; first compound 2.53 µM) was 0.688. For the same cell line, the relative viability ([3]; first compound 8 µM) was 0.709.
With LCLC-97TM1 the relative viability ([1]; first compound 0.253 µM) was 0.283, the relative viability ([1]; first compound 0.8 µM) was 0.205 and the relative viability ([1]; first compound 2.53 µM) was 0.227. For the same cell line, the relative viability ([1]; first compound 8 µM) was 0.123, the relative viability ([2]; first compound 0.253 µM) was 0.333 and the relative viability ([2]; first compound 0.8 µM) was 0.791. It also gave a relative viability ([2]; first compound 2.53 µM) of 0.734, a relative viability ([2]; first compound 8 µM) of 0.527 and a relative viability (Veliparib + Dasatinib; first compound 0.02 µM) of 0.848. It also gave a relative viability (Veliparib + Dasatinib; first compound 0.06325 µM) of 0.845, a relative viability (Veliparib + Dasatinib; first compound 0.2 µM) of 0.895 and a relative viability (Veliparib + Dasatinib; first compound 0.6325 µM) of 0.653. The relative viability (Veliparib + Dasatinib; first compound 2 µM) was 0.864, the relative viability ([3]; first compound 0.253 µM) was 0.422 and the relative viability ([3]; first compound 0.8 µM) was 0.375. The relative viability ([3]; first compound 2.53 µM) was 0.36 and the relative viability ([3]; first compound 8 µM) was 0.38.
For LCLC-103H, the relative viability ([1]; first compound 0.08 µM) was 0.526, the relative viability ([1]; first compound 0.253 µM) was 0.621 and the relative viability ([1]; first compound 0.8 µM) was 0.586. For the same cell line, the relative viability ([1]; first compound 2.53 µM) was 0.648, the relative viability ([1]; first compound 8 µM) was 0.532 and the relative viability ([2]; first compound 0.08 µM) was 0.982. It also gave a relative viability ([2]; first compound 0.253 µM) of 0.998, a relative viability ([2]; first compound 0.8 µM) of 1.11 and a relative viability ([2]; first compound 2.53 µM) of 1. It also gave a relative viability ([2]; first compound 8 µM) of 1.06, a relative viability (Veliparib + Dasatinib; first compound 0.02 µM) of 0.5 and a relative viability (Veliparib + Dasatinib; first compound 0.06325 µM) of 0.469. It also gave a relative viability (Veliparib + Dasatinib; first compound 0.2 µM) of 0.449, a relative viability (Veliparib + Dasatinib; first compound 0.6325 µM) of 0.495 and a relative viability (Veliparib + Dasatinib; first compound 2 µM) of 0.482. It also gave a relative viability ([3]; first compound 0.08 µM) of 0.743, a relative viability ([3]; first compound 0.253 µM) of 0.777 and a relative viability ([3]; first compound 0.8 µM) of 0.773. The relative viability ([3]; first compound 2.53 µM) was 0.781 and the relative viability ([3]; first compound 8 µM) was 0.708.
In the case of LK-2, the relative viability ([1]; first compound 0.253 µM) is reported as 0.524, the relative viability ([1]; first compound 0.8 µM) is reported as 0.598 and the relative viability ([1]; first compound 2.53 µM) is reported as 0.507. For the same cell line, the relative viability ([1]; first compound 8 µM) was 0.488, the relative viability (Veliparib + Dasatinib; first compound 0.06325 µM) was 0.266 and the relative viability (Veliparib + Dasatinib; first compound 0.2 µM) was 0.258. It also gave a relative viability (Veliparib + Dasatinib; first compound 0.6325 µM) of 0.325, a relative viability (Veliparib + Dasatinib; first compound 2 µM) of 0.291 and a relative viability ([3]; first compound 0.253 µM) of 0.792. For the same cell line, the relative viability ([3]; first compound 0.8 µM) was 0.787, the relative viability ([3]; first compound 2.53 µM) was 0.688 and the relative viability ([3]; first compound 8 µM) was 0.722.
